From ChEMBL document CHEMBL5726255, “Biaryl acyl-sulfonamide compounds as sodium channel inhibitors” (2017) come the findings set out here.

Assay [1] has as its target Sodium channel protein type 9 subunit alpha (Homo sapiens, UniProt Q15858). Put plainly: Nav 1.7 In Vitro Patch Express (PX) Assay: HEK 293 cells stably transfected with human Nav1.7 were recorded in whole cell voltage clamp mode with the PatchXpress automated electrophysiology system (Molecular Devices, LLC, Sunnyvale, Calif.). Compound effects were measured on a partially inactivated state of the sodium channel. Cells were clamped to a holding potential yielding 20 to 50% inactivation. To elicit sodium current, channels were activated by pulsing to −10 mV for 20 msec. This voltage protocol was repeated at a rate of 0.1 Hz throughout the experiment. A single concentration of test compound was applied to cells for a duration of 3 minutes. Peak sodium current was measured at the end of the compound addition period to determine percent inhibition. Three to five cells were tested per concentration, and IC50 curves were fitted to percent inhibition as a function of concentration.

The target of assay [2] is Sodium channel protein type 5 subunit alpha (Homo sapiens, UniProt Q14524). Put plainly: Nav 1.5 In Vitro PX Assay: 293 cells stably transfected with human Nav 1.5 were recorded in whole cell voltage clamp mode with the PatchXpress automated electrophysiology system according the manufacturer's specifications (Molecular Devices, LLC, Sunnyvale, Calif.). Cells were held at a holding potential of −50 mV to inactivate sodium channels. To elicit sodium currents the voltage was changed to ….
Description: Nav 1.5 In Vitro PX Assay: 293 cells stably transfected with human Nav 1.5 were recorded in whole cell voltage clamp mode with the PatchXpress automated electrophysiology system according the manufacturer's specifications (Molecular Devices, LLC, Sunnyvale, Calif.). Cells were held at a holding potential of −50 mV to inactivate sodium channels. To elicit sodium currents the voltage was changed to −120 mV to recover a portion of the channels, followed by delivery of test pulses of 20 msec duration to 0 mV, at 0.1 Hz. A single concentration of test compound was applied to cells for a duration of 5 minutes. Peak sodium current was measured at the end of the compound addition period to determine percent inhibition. A minimum of two cells were tested per concentration.

The structures appear in SMILES notation.

Sequence of Sodium channel protein type 9 subunit alpha (Q15858 whole entry): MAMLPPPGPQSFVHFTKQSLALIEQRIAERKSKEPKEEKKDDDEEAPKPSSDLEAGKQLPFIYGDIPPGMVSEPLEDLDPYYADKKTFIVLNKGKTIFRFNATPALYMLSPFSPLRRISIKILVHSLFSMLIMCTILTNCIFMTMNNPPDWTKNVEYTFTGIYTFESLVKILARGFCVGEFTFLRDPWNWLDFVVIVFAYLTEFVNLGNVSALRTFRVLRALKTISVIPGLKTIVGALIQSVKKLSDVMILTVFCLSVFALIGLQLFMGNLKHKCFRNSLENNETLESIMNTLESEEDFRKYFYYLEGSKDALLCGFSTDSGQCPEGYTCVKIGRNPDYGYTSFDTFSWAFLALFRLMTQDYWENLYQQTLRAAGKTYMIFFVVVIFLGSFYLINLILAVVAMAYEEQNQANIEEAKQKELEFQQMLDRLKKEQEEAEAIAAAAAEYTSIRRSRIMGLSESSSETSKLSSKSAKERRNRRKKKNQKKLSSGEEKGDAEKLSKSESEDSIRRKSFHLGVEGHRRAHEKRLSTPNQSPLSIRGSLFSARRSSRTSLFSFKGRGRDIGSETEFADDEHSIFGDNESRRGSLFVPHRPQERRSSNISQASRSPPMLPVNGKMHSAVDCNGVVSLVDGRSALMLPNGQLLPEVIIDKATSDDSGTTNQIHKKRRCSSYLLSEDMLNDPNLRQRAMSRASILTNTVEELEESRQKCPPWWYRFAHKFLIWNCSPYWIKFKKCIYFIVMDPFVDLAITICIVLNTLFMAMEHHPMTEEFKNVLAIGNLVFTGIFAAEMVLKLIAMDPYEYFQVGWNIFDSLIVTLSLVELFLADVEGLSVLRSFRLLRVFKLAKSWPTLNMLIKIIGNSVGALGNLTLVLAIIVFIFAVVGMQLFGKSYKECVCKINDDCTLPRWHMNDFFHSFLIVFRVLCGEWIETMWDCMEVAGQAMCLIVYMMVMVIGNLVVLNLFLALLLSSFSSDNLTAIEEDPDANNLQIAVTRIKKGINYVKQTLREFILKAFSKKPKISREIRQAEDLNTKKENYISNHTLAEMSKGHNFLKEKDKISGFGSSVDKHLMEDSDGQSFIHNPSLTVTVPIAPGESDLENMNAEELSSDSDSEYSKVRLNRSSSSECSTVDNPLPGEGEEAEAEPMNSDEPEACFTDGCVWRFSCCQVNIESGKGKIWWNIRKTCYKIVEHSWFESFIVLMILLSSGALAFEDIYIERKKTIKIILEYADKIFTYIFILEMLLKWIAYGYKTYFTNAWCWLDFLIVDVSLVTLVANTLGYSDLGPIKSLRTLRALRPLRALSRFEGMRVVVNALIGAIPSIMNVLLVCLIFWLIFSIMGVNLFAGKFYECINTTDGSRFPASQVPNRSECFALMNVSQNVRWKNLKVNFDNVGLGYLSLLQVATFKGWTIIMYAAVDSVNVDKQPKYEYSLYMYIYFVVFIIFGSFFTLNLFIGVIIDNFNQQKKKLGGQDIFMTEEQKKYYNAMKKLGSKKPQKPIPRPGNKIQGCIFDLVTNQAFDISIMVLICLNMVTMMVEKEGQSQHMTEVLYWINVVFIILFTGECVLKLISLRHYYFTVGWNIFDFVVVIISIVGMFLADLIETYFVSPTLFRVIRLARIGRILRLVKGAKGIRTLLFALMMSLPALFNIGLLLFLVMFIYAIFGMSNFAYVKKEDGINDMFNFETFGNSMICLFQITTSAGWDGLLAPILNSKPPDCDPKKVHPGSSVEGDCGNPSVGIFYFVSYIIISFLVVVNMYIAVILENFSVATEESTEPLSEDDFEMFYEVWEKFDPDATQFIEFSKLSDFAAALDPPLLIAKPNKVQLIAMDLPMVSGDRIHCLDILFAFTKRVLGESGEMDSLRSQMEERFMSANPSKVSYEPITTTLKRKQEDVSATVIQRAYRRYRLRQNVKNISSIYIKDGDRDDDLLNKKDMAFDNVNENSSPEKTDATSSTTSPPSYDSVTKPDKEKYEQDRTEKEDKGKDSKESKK
Sequence of Sodium channel protein type 5 subunit alpha (Q14524 whole entry): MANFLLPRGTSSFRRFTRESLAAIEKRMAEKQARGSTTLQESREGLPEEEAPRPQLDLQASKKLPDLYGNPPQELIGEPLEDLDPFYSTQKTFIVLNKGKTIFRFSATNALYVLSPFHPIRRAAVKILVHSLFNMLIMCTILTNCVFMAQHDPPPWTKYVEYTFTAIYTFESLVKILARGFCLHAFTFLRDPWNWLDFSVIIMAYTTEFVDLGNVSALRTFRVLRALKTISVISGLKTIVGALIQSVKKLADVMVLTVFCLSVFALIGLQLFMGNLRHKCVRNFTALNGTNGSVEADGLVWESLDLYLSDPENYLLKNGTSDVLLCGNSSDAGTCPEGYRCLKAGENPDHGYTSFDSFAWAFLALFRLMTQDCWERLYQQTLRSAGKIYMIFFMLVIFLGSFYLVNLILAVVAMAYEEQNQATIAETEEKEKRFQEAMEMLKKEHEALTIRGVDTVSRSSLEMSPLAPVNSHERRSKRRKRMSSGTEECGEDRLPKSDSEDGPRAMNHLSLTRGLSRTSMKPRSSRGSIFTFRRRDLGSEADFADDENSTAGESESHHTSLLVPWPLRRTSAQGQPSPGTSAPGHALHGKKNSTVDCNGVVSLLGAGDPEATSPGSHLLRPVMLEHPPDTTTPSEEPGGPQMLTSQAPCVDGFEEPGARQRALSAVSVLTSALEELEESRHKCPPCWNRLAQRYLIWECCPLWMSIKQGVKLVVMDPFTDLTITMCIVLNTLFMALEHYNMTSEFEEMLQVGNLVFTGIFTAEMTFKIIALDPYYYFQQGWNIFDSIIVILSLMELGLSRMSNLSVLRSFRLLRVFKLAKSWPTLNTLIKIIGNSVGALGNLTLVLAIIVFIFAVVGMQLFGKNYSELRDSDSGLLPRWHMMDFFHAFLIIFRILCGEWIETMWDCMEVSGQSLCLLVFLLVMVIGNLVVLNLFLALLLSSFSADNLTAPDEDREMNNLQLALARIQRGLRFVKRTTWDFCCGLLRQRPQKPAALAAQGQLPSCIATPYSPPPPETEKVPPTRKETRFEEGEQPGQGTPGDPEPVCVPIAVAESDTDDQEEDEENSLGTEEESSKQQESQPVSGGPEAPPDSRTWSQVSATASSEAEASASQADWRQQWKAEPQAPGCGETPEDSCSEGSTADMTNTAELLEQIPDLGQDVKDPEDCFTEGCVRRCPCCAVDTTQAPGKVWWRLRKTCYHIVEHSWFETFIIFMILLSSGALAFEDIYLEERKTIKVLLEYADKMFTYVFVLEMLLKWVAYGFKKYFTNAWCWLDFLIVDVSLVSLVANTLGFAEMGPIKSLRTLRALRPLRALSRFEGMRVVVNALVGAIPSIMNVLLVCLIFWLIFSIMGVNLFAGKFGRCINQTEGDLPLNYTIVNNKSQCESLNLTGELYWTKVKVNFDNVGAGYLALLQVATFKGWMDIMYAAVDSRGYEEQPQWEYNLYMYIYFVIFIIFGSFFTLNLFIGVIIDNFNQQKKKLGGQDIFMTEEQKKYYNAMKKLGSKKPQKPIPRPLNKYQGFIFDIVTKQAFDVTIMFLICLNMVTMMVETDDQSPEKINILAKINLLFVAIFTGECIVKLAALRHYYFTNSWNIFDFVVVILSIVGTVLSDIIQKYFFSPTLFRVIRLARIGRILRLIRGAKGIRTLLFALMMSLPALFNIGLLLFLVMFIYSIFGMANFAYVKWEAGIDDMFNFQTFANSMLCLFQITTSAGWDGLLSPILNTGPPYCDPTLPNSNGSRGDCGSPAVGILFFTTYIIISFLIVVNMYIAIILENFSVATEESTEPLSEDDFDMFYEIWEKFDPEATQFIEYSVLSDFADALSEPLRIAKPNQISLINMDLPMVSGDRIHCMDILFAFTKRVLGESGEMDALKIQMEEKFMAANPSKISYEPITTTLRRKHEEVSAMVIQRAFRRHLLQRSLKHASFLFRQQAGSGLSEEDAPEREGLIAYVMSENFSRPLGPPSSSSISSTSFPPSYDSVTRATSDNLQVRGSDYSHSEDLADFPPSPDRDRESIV

Regarding `Cc1cc(C(=O)NS(C)(=O)=O)c(F)cc1-c1cnc(O[C@H](C)c2cc(Cl)ccc2Cl)c(Cl)c1`, the IC50 (as a rule, the point on the concentration scale where inhibition reaches its midpoint) in assay [1] turned out to be 46.2 nM.

Compound `COc1cc(C(=O)NS(C)(=O)=O)ccc1-c1cnc(Oc2c(Cl)ccc(Cl)c2C)c(C#N)c1` came in with an IC50 in assay [1] of 17.2 nM. Compared with the last compound, the IC50 is about 2.7-fold lower. Still for that read-out and setting: for `CC(C)COc1ncc(-c2cc(F)c(C(=O)NS(C)(=O)=O)cc2F)cc1Br` the value was 559 nM. Compound `CS(=O)(=O)NC(=O)c1cc(F)c(-c2cnc(Oc3ccc(F)c4c3CCC4)c(Cl)c2)cc1F` yielded an IC50 in assay [1] of 96.5 nM. Take `Cc1cc(C(=O)NS(=O)(=O)C2CCC2)c(F)cc1-c1cnc(OC2CCC2)c(Cl)c1`: the figures for the IC50 in assay [1] and in assay [2] were 73.9 nM and > 4900 nM, respectively.
